According to paper PMC9537541, “Synthesis and anticancer activity of new benzensulfonamides incorporating s-triazines as cyclic linkers for inhibition of carbonic anhydrase IX” (Scientific Reports, 2022):
Counter-ions that a name gives are not always drawn.

Experiments:
[1] = tested on: Renal cancer (UO-31); test: NCI single dose SRB screen, UO-31; format: cell-based; settings: Homo sapiens, UO-31, 48 h, 10^−5 M single dose, read-out: GI% Renal cancer (UO-31)
Experimental: (§1) Target compounds in series (A) and (B), were submitted to the National Cancer Institute (NCI) Developmental Therapeutic Program (www.dtp.nci.nih.gov), where they have been assessed, in vitro for their anticancer activity. Two series (A) and (B), were screened in a single dose (10 µM) versus full panel composed of 60 cancer cell lines, in accordance with protocol of drug evaluation branch, NCI, Bethesda. Sulforhodamine B (SRB) colorimetric assay was used to determine cell growth and viability,[40].
(§2) Protocol of Drug Evaluation Branch, NCI, Bethesda, was adopted in the antitumor assay. Assessment of cell growth and viability was carried out utilizing SRB assay and 48 h drug exposure protocol as previously reported,[40].

[2] = target: T1, hCA I (Homo sapiens, UniProt P00915); test: stopped-flow CO2 hydrase assay, hCA I; format: biochemical; settings: stopped flow technique, mean from 3 different assays
T1 construct: made in house
T1 sequence (P00915 whole entry): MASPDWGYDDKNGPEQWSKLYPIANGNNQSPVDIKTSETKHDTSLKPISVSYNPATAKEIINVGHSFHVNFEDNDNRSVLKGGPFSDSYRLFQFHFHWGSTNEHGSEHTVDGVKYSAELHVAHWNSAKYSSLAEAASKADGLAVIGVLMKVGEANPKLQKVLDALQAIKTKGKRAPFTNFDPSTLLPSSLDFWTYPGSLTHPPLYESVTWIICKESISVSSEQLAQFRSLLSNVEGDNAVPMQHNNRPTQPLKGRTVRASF
Experimental: (§3) Target compounds of series (A) and (B) were screened as inhibitors concerning the physiologically relevant hCAs; cytosolic isoforms (hCA I and II) in addition to the transmembrane tumor related isoforms (hCA IX and XII) via a stopped-flow assay of carbonic anhydrase catalyzed CO2 hydration. Acetazolamide (AAZ), CA I drug, was also incorporated in the assays as a standard drug. […] Four CA isoforms inhibition activity was measured by assaying CA catalyzed CO2 hydration via an applied photophysics stopped-flow instrument. PRISM 3 and the Cheng-prusoff equation were used to determine the inhibition constant by non-linear least square methods as reported, and represent the mean from three different determination at least. All tested carbonic anhydrase isoforms were recombinant proteins prepared in lab as described earlier,[57].

[3] = tested on: Leukemia (SR); test: NCI single dose SRB screen, SR; format: cell-based; settings: 48 h, 10^−5 M single dose, read-out: GI% Leukemia (SR)
Experimental: as §1, §2

[4] = tested on: Breast cancer (MDA-MB-468); test: NCI single dose SRB screen, MDA-MB-468; format: cell-based; settings: Homo sapiens, MDA-MB-468, 48 h, 10^−5 M single dose, 48 h, SRB; read-out: GI% Breast cancer (MDA-MB-468)
Experimental: as §1, §2

[5] = target: T2, hCA XII (Homo sapiens, UniProt O43570); test: stopped-flow CO2 hydrase assay, hCA XII; format: biochemical; settings: for Ki: stopped flow technique, mean from 3 different assays; for Selectivity index (SI) I/XII: hCA XII over off-target hCA I; for Selectivity index (SI) II/XII: hCA XII over off-target hCA II
T2 construct: made in house
T2 sequence (O43570 25-354): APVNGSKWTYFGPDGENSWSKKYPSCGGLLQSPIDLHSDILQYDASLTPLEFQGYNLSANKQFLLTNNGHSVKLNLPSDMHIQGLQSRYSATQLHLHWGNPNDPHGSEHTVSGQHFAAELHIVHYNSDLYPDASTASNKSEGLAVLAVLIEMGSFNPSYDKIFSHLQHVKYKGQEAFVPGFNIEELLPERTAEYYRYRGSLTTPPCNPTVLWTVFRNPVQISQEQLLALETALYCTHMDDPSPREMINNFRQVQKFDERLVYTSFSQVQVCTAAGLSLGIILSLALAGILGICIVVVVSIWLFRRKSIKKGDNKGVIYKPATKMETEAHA
Experimental: as §3

[6] = target: T3, hCA II (Homo sapiens, UniProt P00918); test: stopped-flow CO2 hydrase assay, hCA II; format: biochemical; settings: for Ki: stopped flow technique, mean from 3 different assays
T3 construct: made in house
Experimental: as §3

[7] = tested on: CNS cancer (SNB-75); test: NCI single dose SRB screen, SNB-75; format: cell-based; settings: Homo sapiens, SNB-75, 48 h, 10^−5 M single dose, read-out: GI% CNS cancer (SNB-75)
Experimental: as §1, §2

[8] = target: T4, hCA IX (Homo sapiens, UniProt Q16790); test: stopped-flow CO2 hydrase assay, hCA IX; format: biochemical; settings: for Ki: stopped flow technique, mean from 3 different assays; for Selectivity index (SI) I/IX: hCA IX over off-target hCA I; for Selectivity index (SI) II/IX: hCA IX over off-target hCA II
T4 construct: made in house
Experimental: as §3

| SMILES | melting point | inhibition at 10 µM [1] | Ki [2] | inhibition at 10 µM [3] | inhibition at 10 µM [4] | Ki [5] | Ki [6] | inhibition at 10 µM [7] | Ki [8] | Selectivity index (SI) I/XII [5] | Selectivity index (SI) II/XII [5] | Selectivity index (SI) I/IX [8] | Selectivity index (SI) II/IX [8] | decrease of hCA II activity relative to the m-fluoro analogue [6] |
| --- | --- | --- | --- | --- | --- | --- | --- | --- | --- | --- | --- | --- | --- | --- |
| NC1=NC2(CCCCCC2)N(c2ccc(S(=O)(=O)Nc3ccccn3)cc2)C(N)=N1 (as salt: HCl) [Compound 6g, 4-(2,4-Diamino-1,3,5-triazaspiro[5.6]dodeca-2,4-dien-1-yl)-N-(pyridin-2-yl)benzene-1-sulfonamide.HCl] | 239 to 241 °C | – | – | – | – | – | – | – | – | – | – | – | – | – |
| NC1=NC2(CCCC2)N(c2ccc(S(=O)(=O)Nc3nccs3)cc2)C(N)=N1 (as salt: HCl) [Compound 6h, 4-{7,9-Diamino-6,8,10-triazaspiro[4.5]deca-7,9-dien-6-yl}-N-(1,3-thiazol-2-yl)benzene-1-sulfonamide.HCl] | 216 to 218 °C | – | – | – | – | – | – | – | – | – | – | – | – | – |
| NC1=NC2(CCCCC2)N(c2ccc(S(=O)(=O)Nc3nccs3)cc2)C(N)=N1 (as salt: HCl) [Compound 6i, 4-(2,4-Diamino-1,3,5-triazaspiro[5.5]undeca-2,4-dien-1-yl)-N-(1,3-thiazol-2-yl)benzene-1-sulfonamide.HCl] | 245 to 247 °C | – | – | – | – | – | – | – | – | – | – | – | – | – |
| CC1CCC2(CC1)N=C(N)N=C(N)N2c1ccc(S(=O)(=O)Nc2nccs2)cc1 (stereo not drawn) (as salt: HCl) [Compound 6j, 4-(2,4-Diamino-9-methyl-1,3,5-triazaspiro[5.5]undeca-2,4-dien-1-yl)-N-(1,3-thiazol-2-yl)benzene-1-sulfonamide.HCl] | 243 to 245 °C | – | – | – | – | – | – | – | – | – | – | – | – | – |
| CC1(C)N=C(N)N=C(N)N1c1ccc(S(=O)(=O)Nc2ccccn2)cc1.Cl [Compound 5b, 4-(4,6-Diamino-2,2-dimethyl-1,2-dihydro-1,3,5-triazin-1-yl)-N-(pyridin-2-yl)benzene-1-sulfonamide HCl] | 209 to 211 °C | 11% | > 10000 nM | ≤ 10% | ≤ 10% | > 10000 nM | > 10000 nM | 28% | > 10000 nM | – | – | – | – | – |
| CC1(C)N=C(N)N=C(Nc2ccc(S(N)(=O)=O)cc2)N1 [Compound 7a, 4-[(4-Amino-6,6-dimethyl-1,6-dihydro-1,3,5-triazin-2-yl)amino]benzene-1-sulfonamide] | 268 to 270 °C | 12% | 6840 nM | ≤ 10% | ≤ 10% | 4650 nM | 384 nM | ≤ 10% | 295 nM | 1.5 | 0.1 | 23.2 | 1.3 | – |
| NC1=NC2(CCCC2)NC(Nc2ccc(S(N)(=O)=O)cc2)=N1 [Compound 8a, 4-({9-Amino-6,8,10-triazaspiro[4.5]deca-7,9-dien-7-yl}amino)benzene-1-sulfonamide] | 264 to 266 °C | 17% | 94.4 nM | ≤ 10% | ≤ 10% | 7420 nM | 3620 nM | 14% | 1420 nM | 0.01 | 0.5 | 0.1 | 2.5 | – |
| NC1=NC2(CCCCC2)NC(Nc2ccc(S(N)(=O)=O)cc2)=N1 [Compound 8b, 4-({4-Amino-1,3,5-triazaspiro[5.5]undeca-2,4-dien-2-yl}amino)benzene-1-sulfonamide] | 270 to 272 °C | ≤ 10% | 354 nM | 15% | 11% | 5430 nM | 3160 nM | 21% | 2280 nM | 0.1 | 0.6 | 0.2 | 1.4 | – |
| CC1CCC2(CC1)N=C(N)N=C(Nc1ccc(S(N)(=O)=O)cc1)N2 (stereo not drawn) [Compound 8c, 4-({4-Amino-9-methyl-1,3,5-triazaspiro[5.5]undeca-2,4-dien-2-yl}amino)benzene-1-sulfonamide] | 264 to 266 °C | ≤ 10% | 408 nM | ≤ 10% | ≤ 10% | 936 nM | 591 nM | ≤ 10% | 1220 nM | 0.4 | 0.6 | 0.3 | 0.5 | – |
| N#CCc1nc(N)nc(Nc2ccc(S(N)(=O)=O)cc2)n1 [Compound 10, 4-{[4-amino-6-(cyanomethyl)-1,3,5-triazin-2-yl]amino}benzene-1-sulfonamide] | 284 to 286 °C | ≤ 10% | 72.3 nM | ≤ 10% | ≤ 10% | 7630 nM | 49.2 nM | 33% | 2450 nM | 0.01 | 0.006 | 0.03 | 0.02 | – |
| N#C/C(=C\c1ccccc1)c1nc(N)nc(Nc2ccc(S(N)(=O)=O)cc2)n1 [Compound 12a, 4-({4-Amino-6-[(1E)-1-cyano-2-phenyleth-1-en-1-yl]-1,3,5-triazin-2-yl}amino)benzene-1-sulfonamide] | 174 to 176 °C | ≤ 10% | 3600 nM | ≤ 10% | ≤ 10% | 8060 nM | 436 nM | ≤ 10% | 1540 nM | 0.4 | 0.05 | 2.3 | 0.3 | – |
| N#C/C(=C\c1cccc(Br)c1)c1nc(N)nc(Nc2ccc(S(N)(=O)=O)cc2)n1 [Compound 12b, 4-({4-Amino-6-[(1E)-2-(3-bromophenyl)-1-cyanoeth-1-en-1-yl]-1,3,5-triazin-2-yl}amino)benzene-1-sulfonamide] | 234 to 236 °C | 16% | 2620 nM | 14% | 16% | 8210 nM | 2000 nM | 14% | 1020 nM | 0.3 | 0.2 | 2.5 | 2 | 8 folds |
| COc1ccc(/C=C(\C#N)c2nc(N)nc(Nc3ccc(S(N)(=O)=O)cc3)n2)cc1 [Compound 12c, 4-({4-Amino-6-[(1E)-1-cyano-2-(4-methoxyphenyl)eth-1-en-1-yl]-1,3,5-triazin-2-yl}amino)benzene-1-sulfonamide] | 281 to 283 °C | 14% | 962 nM | 16% | 22% | 8680 nM | 1940 nM | ≤ 10% | 1390 nM | 0.1 | 0.2 | 0.7 | 1.4 | – |
| N#C/C(=C\c1ccc2c(c1)OCO2)c1nc(N)nc(Nc2ccc(S(N)(=O)=O)cc2)n1 [Compound 12e, 4-({4-Amino-6-[(1E)-2-(2H-1,3-benzodioxol-5-yl)-1-cyanoeth-1-en-1-yl]-1,3,5-triazin-2-yl}amino)benzene-1-sulfonamide] | 269 to 271 °C | 13% | 4050 nM | 11% | 27% | 8540 nM | 893 nM | ≤ 10% | 971 nM | 0.5 | 0.1 | 4 | 1 | – |
| N#C/C(=C\c1ccc(F)cc1)c1nc(N)nc(Nc2ccc(S(N)(=O)=O)cc2)n1 [Compound 12f., 4-({4-Amino-6-[(1E)-1-cyano-2-(4-fluorophenyl)eth-1-en-1-yl]-1,3,5-triazin-2-yl}amino)benzene-1-sulfonamide] | 234 to 236 °C | 15% | 590 nM | 11% | 15% | 4200 nM | 493 nM | 10% | 195 nM | 0.1 | 0.1 | 3 | 2.5 | – |
